The results in this text go back to patent publication US9162975B2, “Phenyl carbamate compounds for use in alleviating or treating pain” (Bio-Pharm Solutions Co., Ltd., priority 2011, dated 2015).

The test system of assay [1] is vincristine-induced pain model in rats. The experiment in a line: Antiallodynic activity on vincristine-induced pain model, von Frey. The format is in vivo, Sprague-Dawley rats. As to conditions: 0.5 hr, paw withdrawal threshold relative to sham. The method, then:
Male, Sprague-Dawley rats (300-320 g, Nara Bio, Korea) were habituated for 1 week before surgery and allowed free access to food and water throughout the experimentation. Room temperature and humidity were maintained at 24±2° C. and 50±10%, respectively.
Vincristine was established by the procedure of Natsuko et al. (2001) with minor modifications. Vincristine was intravenously infused continuously for 14 days using a mini-osmotic pump as follows. Vincristine sulfate solution (Hospira, Australia) was diluted with 0.9% saline to 30 ug/kg, final dose. The pumps (Alzet Model 2002, USA) were filled with the vincristine solution and primed by incubation at 37° C. for 4 h before the infusion. Briefly, animal under gaseous anesthesia with isoflurane a 4:4 flow ratio of NO2. […]
(§1) Tactile sensitivity (Mechanical allodynia) was evaluated using von Frey monofilaments before and after treatment, and animals were used withdrawal threshold value was less than 4 g. […] The tactile sensitivity for ipsilateral hind paw was measured using the up-and-down method (Dixon, 1980) with seven von Frey monofilaments (0.4, 1, 2, 4, 6, 8, and 15 g) to 3 trials. […] The 50% paw withdrawal threshold for each paw was calculated using the following formula: [Xth] log=[vFr] log+ky where [vFr] is the force of the last von Frey used, k=0.2249 which is the average interval (in log units) between the von Frey monofilaments, and y is a value that depends upon the pattern of withdrawal responses (Dixon, 1980).
Antiallodynic effect of compound of Example 1 was evaluated at the dose of 1, 5 and 10 mg/kg (n=6), intraperitoneally administrated in a volume of 5 ul/g, bw in a vehicle of 30% (v/v) PEG. […]
The relative values compared to the sham (% control) were calculated and shown in Table 6 and FIG. 6, which show an antiallodynic effect of Compound 1 on vincristine-induced pain model in rats.

The subject of assay [2] is STZ-induced pain model in rats. The experiment in a line: Antiallodynic activity on streptozotocin (STZ)-induced diabetic pain model, von Frey. It counts as in vivo, Sprague-Dawley rats. The following applies: 0.5 hr, paw withdrawal threshold relative to sham. The method, then:
Male, Sprague-Dawley rats (200-220 g, Nara Bio, Korea) were habituated for 1 week before surgery and allowed free access to food and water throughout the experimentation. Room temperature and humidity were maintained at 24±2° C. and 50±10%, respectively.
STZ-induced diabetic pain model was established with a modified method of Rakieten et al. (1963) and Bertrand Aubel et al. (2004). All animals were fasted 4 to 6 hr prior to STZ injection. STZ (sigma, USA) was dissolved in 20 mM sodium citrate buffer, pH 5.5 (sigma, USA) and intraperitoneally injected at 75 mg/kg, 4 ul/g, bw into the rats Sham controls were injected with same volume of 20 mM sodium citrate buffer, pH 5.5 and vehicle controls were identical to STZ model, except for administration of vehicles. Rats were supplied with 10% sucrose water for 2 days against sudden hypoglycemia. 3 days later, the induction of diabetes was checked by measurement of tail vein blood glucose levels with a blood glucose meter. (LifeScan OneTouch Ultra, USA). If blood glucose was not >300 mg/dl by 72 hr, the rat was excluded from the diabetic group.
as §1, with “treatment of compound example 1” for “treatment,”
Antiallodynic effect of compound of Example 1 was evaluated at the dose of 10, 30 and 60 mg/kg (n=6), intraperitoneally administrated in a volume of 5 ul/g, bw in a vehicle of 30% (v/v) PEG. […]

Where [3] appears, read: dose 10 mg/kg intraperitoneally.

Consider `C[C@H](OC(N)=O)[C@@H](O)c1ccccc1Cl` [Example 1, 1-(2-chlorophenyl)-(S)-1-hydroxypropyl-(S)-2-carbamate], for which the “% Control (vincristine-induced pain model)” value in assay [1] (dose 1 mg/kg intraperitoneally) came to 20.7%; in assay [1] (dose 5 mg/kg intraperitoneally), 63.1%; in assay [1] (setting [3]), 71.7%. In addition, the “% Control (STZ-induced pain model)” value in assay [2] (setting [3]) worked out at 33.9%; in assay [2] (dose 30 mg/kg intraperitoneally) it was 49.9%; in assay [2] (dose 60 mg/kg intraperitoneally), 73.7%.
